# Legend:
# human CB2 receptors = human CB2 receptors (Homo sapiens (Human), UniProt P34972); experiment: cAMP assay, CHO cells expressing human CB2 receptors; format: cell-based; conditions: CHO cells expressing human CB2, cAMP; read-out: human CB2 EC50
# Summary of the method: (§1)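 CHO cells expressing human CB1 or CB2 were preincubated 30 min at 30 °C in Krebs Ringer bicarbonate buffer with 1 mM IBMX, then exposed to compound 30 min at 30 °C. cAMP quantified by time-resolved FRET against a cAMP standard curve; EC50 values derived.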
# human CB1 receptors = human CB1 receptors (Homo sapiens (Human), UniProt P21554); experiment: cAMP assay, CHO cells expressing human CB1 receptors; format: cell-based; conditions: CHO cells expressing human CB1, cAMP; read-out: human CB1 EC50
# Summary of the method: as §1
# Sequence of human CB2 receptors (P34972 whole entry): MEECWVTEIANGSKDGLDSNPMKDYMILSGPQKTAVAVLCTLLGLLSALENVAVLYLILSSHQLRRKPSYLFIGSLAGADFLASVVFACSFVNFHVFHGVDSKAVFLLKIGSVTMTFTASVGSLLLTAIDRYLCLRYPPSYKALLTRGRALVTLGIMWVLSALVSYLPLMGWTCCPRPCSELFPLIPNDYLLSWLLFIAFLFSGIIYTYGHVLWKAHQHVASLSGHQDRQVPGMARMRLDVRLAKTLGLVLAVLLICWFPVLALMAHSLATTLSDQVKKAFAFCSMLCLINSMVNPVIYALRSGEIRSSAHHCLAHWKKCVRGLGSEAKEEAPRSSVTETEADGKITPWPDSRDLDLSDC
# Sequence of human CB1 receptors (P21554 whole entry): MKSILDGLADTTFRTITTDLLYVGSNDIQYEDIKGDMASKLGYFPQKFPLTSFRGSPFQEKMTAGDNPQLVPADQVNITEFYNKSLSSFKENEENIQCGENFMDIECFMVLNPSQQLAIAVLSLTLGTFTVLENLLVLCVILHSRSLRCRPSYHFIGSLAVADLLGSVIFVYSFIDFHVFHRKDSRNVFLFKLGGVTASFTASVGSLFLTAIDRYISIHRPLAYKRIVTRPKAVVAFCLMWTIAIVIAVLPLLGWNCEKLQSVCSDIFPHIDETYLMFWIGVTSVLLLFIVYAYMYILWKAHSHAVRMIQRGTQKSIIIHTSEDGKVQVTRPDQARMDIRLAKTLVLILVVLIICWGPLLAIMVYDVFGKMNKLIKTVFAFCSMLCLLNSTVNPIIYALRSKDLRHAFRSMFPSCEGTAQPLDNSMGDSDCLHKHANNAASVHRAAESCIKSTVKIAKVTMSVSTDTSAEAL
smiles,measurement,setting,value
"CC(C)CSc1nc(C(=O)N[C@@H](CC(C)C)C(N)=O)ccc1C1CC1 [Example 346, 5-Cyclopropyl-6-isobutylsulfanyl-pyridine-2-carboxylic acid ((S)-1-carbamoyl-3-methyl-butyl)-amide]",EC50,human CB2 receptors,11 nM
same,EC50,human CB1 receptors,> 10000 nM
"CNC(=O)[C@H](CC(C)(C)C)NC(=O)c1ccc(C2CC2)c(OCC(F)(F)C(F)(F)F)n1 [Example 299, 5-Cyclopropyl-6-(2,2,3,3,3-pentafluoro-propoxy)-pyridine-2-carboxylic acid ((S)-3,3-dimethyl-1-methylcarbamoyl-butyl)-amide]",EC50,human CB2 receptors,27.6 nM
same,EC50,human CB1 receptors,603 nM
"Cc1nsc(C(C)(C)NC(=O)c2cccc(-c3cccc(Cl)c3)n2)n1 [Example 22, 6-(3-Chloro-phenyl)-pyridine-2-carboxylic acid [1-methyl-1-(3-methyl-[1,2,4]thiadiazol-5-yl)-ethyl]-amide]",EC50,human CB2 receptors,635 nM
same,EC50,human CB1 receptors,> 10000 nM
"CCC(CC)(NC(=O)c1cccc(-c2cccc(Cl)c2)n1)C(=O)N(C)C [Example 23, 6-(3-Chloro-phenyl)-pyridine-2-carboxylic acid (1-dimethylcarbamoyl-1-ethyl-propyl)-amide]",EC50,human CB2 receptors,48.2 nM
same,EC50,human CB1 receptors,> 10000 nM
"CC[C@@H](NC(=O)c1ccc(C2CC2)c(OCC2CC2)n1)c1noc(C)n1 [Example 245, 5-Cyclopropyl-6-cyclopropylmethoxy-pyridine-2-carboxylic acid [(−)-1-(5-methyl-[1,2,4]oxadiazol-3-yl)-propyl]-amide]",EC50,human CB2 receptors,20.5 nM
same,EC50,human CB1 receptors,> 10000 nM
"O=C(NC1CCCCC1)c1cccc(-c2cccc(Cl)c2)n1 [Example 18, 6-(3-Chloro-phenyl)-pyridine-2-carboxylic acid cyclohexylamide]",EC50,human CB2 receptors,97 nM
same,EC50,human CB1 receptors,> 10000 nM
"Cc1ccc(C(=O)N2CCCCC2)nc1S(=O)(=O)N1CCCCC1 [Example 25, [5-Methyl-6-(piperidine-1-sulfonyl)-pyridin-2-yl]-piperidin-1-yl-methanone]",EC50,human CB2 receptors,291 nM
same,EC50,human CB1 receptors,> 10000 nM
"CC(C)[C@@](C)(CO)NC(=O)c1ccc(C2CC2)c(OCC2CC2)n1 [Example 279, 5-Cyclopropyl-6-cyclopropylmethoxy-pyridine-2-carboxylic acid ((S)-1-hydroxymethyl-1,2-dimethyl-propyl)-amide]",EC50,human CB2 receptors,23 nM
same,EC50,human CB1 receptors,> 10000 nM
"O=C(NC(c1ccccn1)C(F)(F)F)c1ccc(C2CC2)c(OCC2CCOCC2)n1 (stereo not drawn) [Example 223, 5-Cyclopropyl-6-(tetrahydro-pyran-4-ylmethoxy)-pyridine-2-carboxylic acid (2,2,2-trifluoro-1-pyridin-2-yl-ethyl)-amide]",EC50,human CB2 receptors,10.9 nM
same,EC50,human CB1 receptors,655 nM
"CNC(=O)[C@H](CC(C)C)NC(=O)c1cccc(-c2cccc(C(F)(F)F)c2)n1 [Example 211, (S)-N-(4-Methyl-1-(methylamino)-1-oxopentan-2-yl)-6-(3-(trifluoromethyl)phenyl)picolinamide]",EC50,human CB2 receptors,57.1 nM
same,EC50,human CB1 receptors,> 10000 nM
"CCOC(=O)C(CC)(CC)NC(=O)c1ccc(C2CC2)c(S(=O)(=O)CC(C)C)n1 [Example 360, 2-{[5-Cyclopropyl-6-(2-methyl-propane-1-sulfonyl)-pyridine-2-carbonyl]-amino}-2-ethyl-butyric acid ethyl ester]",EC50,human CB2 receptors,2.4 nM
same,EC50,human CB1 receptors,88.5 nM
"O=C(NN1CCCCC1)c1ccc(C2CC2)c(OCC2CC2)n1 [Example 42, 5-Cyclopropyl-6-cyclopropylmethoxy-pyridine-2-carboxylic acid piperidin-1-ylamide]",EC50,human CB2 receptors,1480 nM
same,EC50,human CB1 receptors,> 10000 nM
"CN(C)C(=O)[C@H](CC1CC1)NC(=O)c1ccc(C2CC2)c(OCC2CC2)n1 [Example 222, 5-Cyclopropyl-6-cyclopropylmethoxy-pyridine-2-carboxylic acid ((S)-2-cyclopropyl-1-dimethylcarbamoyl-ethyl)-amide]",EC50,human CB2 receptors,3.2 nM
same,EC50,human CB1 receptors,> 10000 nM
"O=C(N[C@H]1CCOC1=O)c1ccc(C2CC2)c(OCC2CC2)n1 [Example 362, 5-Cyclopropyl-6-cyclopropylmethoxy-pyridine-2-carboxylic acid ((S)-2-oxo-tetrahydro-furan-3-yl)-amide]",EC50,human CB2 receptors,441 nM
same,EC50,human CB1 receptors,> 10000 nM
"CNC(=O)[C@H](CC(C)C)NC(=O)c1ccc(C2CC2)c(OCC2CCOCC2)n1 [Example 203, (S)-5-Cyclopropyl-N-(4-methyl-1-(methylamino)-1-oxopentan-2-yl)-6-((tetrahydro-2H-pyran-4-yl)methoxy)picolinamide]",EC50,human CB2 receptors,2.7 nM
same,EC50,human CB1 receptors,74.9 nM
"Cc1nc(C(C)(C)NC(=O)c2ccc(C3CCCC3)c(OCC3CC3)n2)no1 [Example 54, 5-Cyclopentyl-6-cyclopropylmethoxy-pyridine-2-carboxylic acid [1-methyl-1-(5-methyl-[1,2,4]oxadiazol-3-yl)-ethyl]-amide]",EC50,human CB2 receptors,11.4 nM
same,EC50,human CB1 receptors,2160 nM
"CC(C)(NC(=O)c1ccc(N2CC(O)C2)c(OCC2CC2)n1)c1nccs1 [Example 75, 6-Cyclopropylmethoxy-5-(3-hydroxy-azetidin-1-yl)-pyridine-2-carboxylic acid (1-methyl-1-thiazol-2-yl-ethyl)-amide]",EC50,human CB2 receptors,15.2 nM
same,EC50,human CB1 receptors,> 10000 nM
"NC(=O)[C@@H](NC(=O)c1ccc(C2CC2)c(OCC2CC2)n1)c1ccc(F)cc1 [Example 328, 5-Cyclopropyl-6-cyclopropylmethoxy-pyridine-2-carboxylic acid [(S)-carbamoyl-(4-fluoro-phenyl)-methyl]-amide]",EC50,human CB2 receptors,3.9 nM
same,EC50,human CB1 receptors,> 10000 nM
"NC(=O)[C@H](CC1CC1)NC(=O)c1ccc(Br)c(OCC2CC2)n1 [Example 110, 5-Bromo-6-cyclopropylmethoxy-pyridine-2-carboxylic acid ((S)-1-carbamoyl-2-cyclopropyl-ethyl)-amide]",EC50,human CB2 receptors,224 nM
same,EC50,human CB1 receptors,> 10000 nM
"NC(=O)C1(NC(=O)c2ccc(C3CC3)c(OCC3CC3)n2)CCOCC1 [Example 180, 5-Cyclopropyl-6-cyclopropylmethoxy-pyridine-2-carboxylic acid (4-carbamoyl-tetrahydro-pyran-4-yl)-amide]",EC50,human CB2 receptors,423 nM
same,EC50,human CB1 receptors,> 10000 nM
"CCC(CC)(NC(=O)c1ccc(C2CC2)c(OCC2CC2)n1)C(=O)NC [Example 74, 5-Cyclopropyl-6-cyclopropylmethoxy-pyridine-2-carboxylic acid (1-ethyl-1-methylcarbamoyl-propyl)-amide]",EC50,human CB2 receptors,8.9 nM
same,EC50,human CB1 receptors,> 10000 nM
"CC1(COc2nc(C(=O)NC(c3ccccn3)C(F)(F)F)ccc2Br)COC1 (stereo not drawn) [Example 283, 5-Bromo-6-(3-methyl-oxetan-3-ylmethoxy)-pyridine-2-carboxylic acid (2,2,2-trifluoro-1-pyridin-2-yl-ethyl)-amide]",EC50,human CB2 receptors,109 nM
same,EC50,human CB1 receptors,> 10000 nM
"CC(C)C[C@H](NC(=O)c1ccc(C2CC2)c(OCC2CC2)n1)C(N)=O [Example 100, 5-Cyclopropyl-6-cyclopropylmethoxy-pyridine-2-carboxylic acid ((S)-1-carbamoyl-3-methyl-butyl)-amide]",EC50,human CB2 receptors,1.2 nM
same,EC50,human CB1 receptors,801 nM
"COc1ccc(C(=O)NC(C)(C)c2noc(C)n2)nc1-c1cccc(Cl)c1 [Example 89, 6-(3-Chloro-phenyl)-5-methoxy-pyridine-2-carboxylic acid [1-methyl-1-(5-methyl-[1,2,4]oxadiazol-3-yl)-ethyl]-amide]",EC50,human CB2 receptors,119 nM
same,EC50,human CB1 receptors,1360 nM
"O=C(NN1CCCCC1)c1cccc(C2CCCC2)n1 [Example 94, 6-Cyclopentyl-pyridine-2-carboxylic acid piperidin-1-ylamide]",EC50,human CB2 receptors,129 nM
same,EC50,human CB1 receptors,> 10000 nM
"CCOC(=O)C(CC)(CC)NC(=O)c1ccc(C(F)(F)F)c(OCC2CCCO2)n1 (stereo not drawn) [Example 254, 2-Ethyl-2-{[6-(tetrahydro-furan-2-ylmethoxy)-5-trifluoromethyl-pyridine-2-carbonyl]-amino}-butyric acid ethyl ester]",EC50,human CB2 receptors,2.3 nM
same,EC50,human CB1 receptors,518 nM
O=C(c1ccc(N2CCCC2)c(OCC2CC2)n1)N1CCS(=O)(=O)CC1 [Example 15],EC50,human CB2 receptors,95.9 nM
same,EC50,human CB1 receptors,> 10000 nM
"Cc1ccc(C(=O)NC(C)(C)c2nccs2)nc1OCC1CC1 [Example 62, 6-Cyclopropylmethoxy-5-methyl-pyridine-2-carboxylic acid (1-methyl-1-thiazol-2-yl-ethyl)-amide]",EC50,human CB2 receptors,11.5 nM
same,EC50,human CB1 receptors,561 nM
"Cc1nc(C(C)(C)NC(=O)c2cccc(-c3ccc(F)c(Cl)c3)n2)no1 [Example 268, 6-(3-Chloro-4-fluoro-phenyl)-pyridine-2-carboxylic acid [1-methyl-1-(5-methyl-[1,2,4]oxadiazol-3-yl)-ethyl]-amide]",EC50,human CB2 receptors,8.7 nM
same,EC50,human CB1 receptors,337 nM
"CC(C)C[C@H](NC(=O)c1ccc(N2CCCC2C)c(OCC2CC2)n1)C(N)=O (stereo partly drawn) [Example 32, 6-Cyclopropylmethoxy-5-(2-methyl-pyrrolidin-1-yl)-pyridine-2-carboxylic acid ((S)-1-carbamoyl-3-methyl-butyl)-amide]",EC50,human CB2 receptors,1.55 nM
same,EC50,human CB1 receptors,1390 nM
"O=C(NNC1CCS(=O)(=O)C1)c1cccc(Cc2ccc(F)cc2)n1 (stereo not drawn) [Example 308, 6-(4-Fluoro-benzyl)-pyridine-2-carboxylic acid N′-(1,1-dioxo-tetrahydro-1λ^6-thiophen-3-yl)-hydrazide]",EC50,human CB2 receptors,580 nM
same,EC50,human CB1 receptors,> 10000 nM
"CC1(C)CCc2ccc(C(=O)NC(C)(C)CO)nc2C1 [Example 145, N-(1-hydroxy-2-methylpropan-2-yl)-7,7-dimethyl-5,6,7,8-tetrahydroquinoline-2-carboxamide]",EC50,human CB2 receptors,289 nM
same,EC50,human CB1 receptors,> 10000 nM
"O=C(NC1(C(F)(F)F)CC1)c1ccc(N2CC(F)(F)C2)c(OCC2CC2)n1 [Example 378, 6-Cyclopropylmethoxy-5-(3,3-difluoro-azetidin-1-yl)-pyridine-2-carboxylic acid (1-trifluoromethyl-cyclopropyl)-amide]",EC50,human CB2 receptors,6.4 nM
same,EC50,human CB1 receptors,> 10000 nM
